Paper PMC6424957 (Scientific Reports, 2019)
“And” between values parts separate entries of the source, which are not always exact repeats. Equal values may be shown once.

Legend:
[1] = ABTS radical cation scavenging assay; conditions: for ABTS·+ scavenging activity, TEAC value: Trolox equivalent antioxidant capacity, ratio of slopes compound/Trolox; for ABTS·+ scavenging activity, TEAC value / IC50: 1 h incubation; for IC50: concentration reducing ABTS·+ by 50%; for radical-scavenging activity, ABTS method: result in words
Protocol: This assay is based on the production of a stable dark green ABTS cation-radical (ABTS^·+) by incubating ABTS ([2,2′-azino-bis(3-eth-ylbenzothiazoline-6-sulfonic acid diammonium salt)) with potassium persulfate. […] The ABTS radical-scavenging activity of the compounds was measured according to an established method[66] with some modifications, at 30 °С in the dark; incubation time was 1 hour. […] The results were expressed as TEAC values (Trolox equivalent antioxidant capacity) calculated by dividing the slope of ABTS^·+ concentration decrease versus the antioxidant concentration by the slope of the Trolox plot.
Radical scavenging activity of the compounds was assessed using an ABTS radical decolorization assay[66] with some minor modifications. ABTS (2,2′-azino-bis-(3-ethylbenzothiazoline-6-sulfonic acid) diammonium salt) was purchased from TCI (Tokyo, Japan); potassium persulfate (di-potassium peroxodisulfate) and Trolox (6-hydroxy-2,5,7,8-tetramethychroman-2-carboxylic acid were obtained from Sigma-Aldrich Chemical Co. (St. Louis, MO, USA). Ethanol was HPLC grade. Aqueous solutions were prepared using deionized water.
Trolox was used as the antioxidant standard. A 5 mM solution of Trolox was prepared in DMSO for use as stock. Fresh working solutions of known concentrations (1–100 μM) were prepared on the day of experiments and used for calibration and as positive controls for ABTS radical cation (ABTS^•+) scavenging activity. ABTS was dissolved in deionized water to a 7 mM concentration. […] Fresh working ABTS^•+ solution was prepared for each assay.
The radical scavenging capacity of the compounds was analyzed by mixing 10 μl of compound with 240 μl of ABTS^•+ working solution. […] Ethanol blanks were run in each assay. Values were obtained from three replicates of each sample and three independent experiments.
Antioxidant capacity as a Trolox equivalent (TEAC values) was determined as the ratio between the slopes obtained from the linear correlation for concentrations of test compounds and Trolox with absorbance of ABTS radical.

[2] = Oxygen radical absorbance capacity assay (ORAC-FL); conditions: for ORAC TE value: ORAC-FL, AAPH, fluorescein, 37 °C, pH 7.4, Trolox taken as 1; for radical-scavenging activity, ORAC-FL method: result in words
Protocol: The ability of the conjugates to reduce the amount of peroxyl radicals as another characteristic of the antioxidant activity of the compounds was determined using the oxygen radical absorbance capacity by fluorescence (ORAC-FL) method using fluorescein (FL) as a fluorescent probe. The method is based on measuring the decrease in the intensity of fluorescence with time, which characterizes the degree of decay of the fluorescent probe under the influence of peroxyl radicals. In the presence of antioxidants, the degree of decay of the fluorescent probe decreases and, accordingly, the fluorescence time increases.
The ability of compounds to scavenge peroxyl radicals was characterized by the value of the Trolox equivalent (TE, μmol of Trolox per μmol of the tested compound), which is equal to the ratio of the Trolox concentration to the tested compound concentration having the same fluorescence intensity. Peroxyl radical scavenging capacity of Trolox is taken as one (1)[67],[68].
2,2′-Azobis-(amidinopropane) dihydrochloride (AAPH), (±)-6-hydroxy-2,5,7,8-tetramethylchromane-2-carboxylic acid (Trolox) and fluorescein (FL) were purchased from Sigma-Aldrich. The reaction was carried out at 37 °C in 75 mM K,Na phosphate buffer (pH 7.4), and the final reaction mixture was 200 µL. The tested compounds and Trolox standard were dissolved in DMSO to 10 mM and further diluted in 75 mM K,Na phosphate buffer (pH 7.4). […] The blank was composed of 20 µL 75 mM K,Na phosphate buffer (pH 7.4) containing 2% (v/v) DMSO, 120 µL FL and 60 µL AAPH, and was added in each assay. Antioxidant (the test compound or Trolox, 20 µL) and FL (120 µL, final concentration: 70 nM) solutions were placed in a black 96-well microplate and were pre-incubated for 15 min at 37 °C. AAPH solution (60 µL, final concentration 12 mM) was then added rapidly using a multichannel pipette. The fluorescence was recorded every minute for 100 min. A Trolox standard curve was also obtained in each assay. All reactions were carried out in triplicate and at least three different assays were performed for each sample.
Antioxidant curves (fluorescence vs. time) were first normalized to the curve of the blank (without antioxidant) corresponding to the same assay, and the area under the fluorescence decay curve (AUC) was calculated. The net AUC corresponding to a sample was calculated by subtracting the AUC corresponding to the blank. Regression equations were calculated by plotting the net AUC against the antioxidant concentration. The ORAC value was obtained by dividing the slope of the latter curve by the slope of the Trolox curve obtained in the same assay. […] Data were expressed as means ± SEM.

[3] = target: T1, peripheral anionic site (PAS) of EeAChE (Electrophorus electricus, UniProt O42275); format: binding; conditions: EeAChE 7 μM, propidium iodide 8 μM; for % Displacement of propidium iodide, 3 µM: compound 3 µM; for % Displacement of propidium iodide, 20 µM: compound 20 µM
T1 construct: from human erythrocyte and E. electricus (EeAChE) (type VI-S); purchased Sigma-Aldrich (Germany) type VI-S; host or cells: Electrophorus electricus tissue
T1 sequence (O42275 24-633): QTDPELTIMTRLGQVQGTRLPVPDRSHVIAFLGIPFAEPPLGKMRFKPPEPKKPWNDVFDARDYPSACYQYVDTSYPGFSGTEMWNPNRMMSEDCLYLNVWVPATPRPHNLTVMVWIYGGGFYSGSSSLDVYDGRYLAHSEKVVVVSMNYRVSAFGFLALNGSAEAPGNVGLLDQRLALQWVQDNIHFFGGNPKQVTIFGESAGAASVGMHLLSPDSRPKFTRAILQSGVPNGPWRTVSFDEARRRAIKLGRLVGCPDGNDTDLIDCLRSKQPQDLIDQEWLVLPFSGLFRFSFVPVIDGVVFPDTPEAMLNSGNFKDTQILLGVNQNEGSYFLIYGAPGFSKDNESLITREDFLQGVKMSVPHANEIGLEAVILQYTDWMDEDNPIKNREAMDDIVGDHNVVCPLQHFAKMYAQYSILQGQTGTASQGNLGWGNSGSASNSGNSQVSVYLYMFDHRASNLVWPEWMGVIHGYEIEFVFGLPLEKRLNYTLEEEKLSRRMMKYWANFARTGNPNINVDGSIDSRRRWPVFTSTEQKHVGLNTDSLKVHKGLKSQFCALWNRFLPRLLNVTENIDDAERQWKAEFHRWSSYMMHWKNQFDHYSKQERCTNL
Description: The fluorescent assay used to evaluate competitive propidium iodide displacement from the PAS of AChE is commonly used as primary screening method of AChE pro-aggregation activity inhibitors. Propidium iodide is a selective ligand for the PAS of AChE responsible for Aβ binding.
EeAChE was used owing to its high degree of purification, high activity, and lower cost than human AChE. […] The fluorescence intensity of propidium iodide bound with AChE increases several times.
To determine the degree of displacement (% displacement) of propidium iodide from the PAS of AChE, EeAChE (final concentration 7 μM) was incubated with the test compound at a concentration of 3 and 20 μM in 1 mM Tris-HCl buffer pH 8.0, 25 °C for 15 min. Then, propidium iodide solution (final concentration 8 μM) was added, the samples were incubated for 15 min and the fluorescence spectrum (530 nm (excitation) and 600 nm (emission)) was taken. Donepezil and tacrine were used as reference compounds. The blank contained propidium iodide of the same concentration in 1 mM Tris-HCl buffer pH 8.0. The measurements were carried out in triplicate on a microplate reader FLUOStar Optima (BMG Labtech Germany).
The degree of displacement (% displacement) of propidium iodide from the peripheral anionic site of AChE was calculated by the following formula: %Displacement=100−(IFAChE+Propidium+inhibitor/IFAChE+Propidium)[…], where IFAChE + Propidium is the fluorescence intensity of the propidium associated with AChE in the absence of the test compound (taken as 100%), and IFAChE + Propidium + inhibitor is the fluorescence intensity of the propidium associated with AChE in the presence of the test compound.

[4] = target: T2, AChE from human erythrocytes (Homo sapiens, UniProt P22303); format: biochemical; conditions: for αKi (non-competitive component), AChE / Ki: Lineweaver-Burk analysis; for Ki: read-out: Ki (competitive component), AChE
T2 construct: Acetylcholinesterase (AChE, EC 3.1.1.7, from human erythrocyte); purchased Sigma-Aldrich (Germany); host or cells: human erythrocytes
T2 sequence (P22303 32-617 isoform P22303-2 limits assumed): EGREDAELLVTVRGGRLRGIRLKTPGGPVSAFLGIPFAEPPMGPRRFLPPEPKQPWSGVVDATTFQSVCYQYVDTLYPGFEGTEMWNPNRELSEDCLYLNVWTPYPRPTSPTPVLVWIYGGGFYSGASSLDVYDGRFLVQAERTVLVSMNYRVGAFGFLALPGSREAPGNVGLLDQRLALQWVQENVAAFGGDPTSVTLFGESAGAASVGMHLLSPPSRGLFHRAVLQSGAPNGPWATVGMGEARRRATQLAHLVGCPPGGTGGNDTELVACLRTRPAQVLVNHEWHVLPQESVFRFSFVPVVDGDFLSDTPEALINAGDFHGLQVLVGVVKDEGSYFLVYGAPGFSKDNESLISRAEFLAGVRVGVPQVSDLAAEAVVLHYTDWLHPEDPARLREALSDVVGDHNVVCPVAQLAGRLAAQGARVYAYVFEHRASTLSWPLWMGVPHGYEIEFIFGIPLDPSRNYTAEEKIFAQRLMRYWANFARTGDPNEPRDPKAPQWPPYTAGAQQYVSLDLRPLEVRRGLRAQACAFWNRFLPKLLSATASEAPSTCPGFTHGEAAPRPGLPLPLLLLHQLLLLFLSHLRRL
Protocol: (§1) To elucidate the inhibition mechanisms for the active compounds, the AChE and BChE residual activity was determined in the presence of 3 increasing concentrations of the test compounds and 6 decreasing concentrations of the substrates. The test compounds were preincubated with the enzymes at 25 °C for 5 min, followed by the addition of the substrates. Parallel controls were made for an assay of the rate of hydrolysis of the same concentrations of substrates in the solutions with no inhibitor. […] Each experiment was performed three times.

BChE from equine serum = target: T3, BChE from equine serum (Equus caballus, UniProt P81908); format: biochemical; conditions: for αKi (non-competitive component), BChE / Ki: Lineweaver-Burk analysis; for Ki: read-out: Ki (competitive component), BChE
T3 construct: butyrylcholinesterase (BChE, EC 3.1.1.8, from equine serum); purchased Sigma-Aldrich (Germany); host or cells: equine serum
T3 sequence (P81908 whole entry): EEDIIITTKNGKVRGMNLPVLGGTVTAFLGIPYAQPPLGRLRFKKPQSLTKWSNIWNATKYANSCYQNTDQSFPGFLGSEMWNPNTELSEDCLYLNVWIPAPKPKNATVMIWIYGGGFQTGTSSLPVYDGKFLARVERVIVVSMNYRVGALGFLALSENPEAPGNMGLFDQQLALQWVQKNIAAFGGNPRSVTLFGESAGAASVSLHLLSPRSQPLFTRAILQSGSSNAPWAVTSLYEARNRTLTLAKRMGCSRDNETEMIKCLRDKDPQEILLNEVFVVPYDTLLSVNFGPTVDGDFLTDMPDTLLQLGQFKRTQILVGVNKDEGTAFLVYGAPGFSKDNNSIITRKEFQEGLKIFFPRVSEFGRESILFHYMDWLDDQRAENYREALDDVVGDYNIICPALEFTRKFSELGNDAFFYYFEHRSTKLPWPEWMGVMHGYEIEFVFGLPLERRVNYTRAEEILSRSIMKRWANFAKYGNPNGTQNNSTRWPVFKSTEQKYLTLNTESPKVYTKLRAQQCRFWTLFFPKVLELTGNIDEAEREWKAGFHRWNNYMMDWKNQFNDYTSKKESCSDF
Protocol: as §1

[5] = tested on: isolated rat liver mitochondria; assay: Restoration of mitochondrial membrane potential after rotenone-induced depolarization; format: biochemical; conditions: 3 μM compound
Description: Therefore, we examined the ability of MB, MBH2, and compound 3 to restore membrane potential after depolarization with rotenone. […] It is important to note that successive additions of calcium and the uncoupler carbonyl cyanide m-chlorophenyl hydrazone (CCCP) each caused mitochondrial depolarization (Fig. 6). […]

[6] = cited from earlier work
[7] = Lineweaver-Burk plots, changes in Vmax and Km

SMILES	ABTS·+ scavenging activity, TEAC value [1]	IC50 [1]	ORAC TE value [2]	% Displacement of propidium iodide, 3 µM [3]	% Displacement of propidium iodide, 20 µM [3]	αKi (non-competitive component), AChE [4]	Ki [4]	type of AChE inhibition [4, 7]	αKi (non-competitive component), BChE (BChE from equine serum)	Ki (BChE from equine serum)	type of BChE inhibition (BChE from equine serum; [7])	recovery of ΔΨm after rotenone-induced depolarization [5]	radical-scavenging activity, ABTS method [1]	redox potential [6]	radical-scavenging activity, ORAC-FL method [2]
CN1CCc2c(c3ccccc3n2CCC(=O)N2c3ccc(N(C)C)cc3Sc3cc(N(C)C)ccc32)C1.Cl.Cl.Cl [Compound 1]	0.63 ± 0.045	35.4 ± 3.4 µM	7.28 ± 0.65 µmol Trolox/ µmol comp.												
CCN1CCc2c(c3ccccc3n2CCC(=O)N2c3ccc(N(C)C)cc3Sc3cc(N(C)C)ccc32)C1.Cl.Cl.Cl [Compound 2]	1.03 ± 0.07	19.1 ± 1.52 µM	8.80 ± 0.96 µmol Trolox/ µmol comp.	12.9 ± 1.1%	37.1 ± 2.0%										
Cc1ccc2c(c1)c1c(n2CCC(=O)N2c3ccc(N(C)C)cc3Sc3cc(N(C)C)ccc32)CCN(C)C1 [Compound 3]	0.79 ± 0.06	27.5 ± 1.64 µM	7.44 ± 0.74 µmol Trolox/ µmol comp.	8.1 ± 0.7%	35.6 ± 1.5%	3.35 ± 0.31 µM	880 ± 70 nM	mixed-type inhibition	2.09 ± 0.19 µM	370 ± 30 nM	mixed-type inhibition	recovered			
CCN1CCc2c(c3cc(C)ccc3n2CCC(=O)N2c3ccc(N(C)C)cc3Sc3cc(N(C)C)ccc32)C1.Cl.Cl.Cl [Compound 4]	0.99 ± 0.08	20.5 ± 2.05 µM	9.82 ± 0.79 µmol Trolox/ µmol comp.	11.8 ± 0.6%	37.6 ± 1.8%										
CCCN1CCc2c(c3cc(C)ccc3n2CCC(=O)N2c3ccc(N(C)C)cc3Sc3cc(N(C)C)ccc32)C1.Cl.Cl.Cl [Compound 5]	0.99 ± 0.05	19.6 ± 1.82 µM	7.70 ± 0.84 µmol Trolox/ µmol comp.	14.2 ± 0.9%	35.1 ± 0.9%										
Cc1ccc2c(c1)c1c(n2CCC(=O)N2c3ccc(N(C)C)cc3Sc3cc(N(C)C)ccc32)CCN(C(C)C)C1.Cl.Cl.Cl [Compound 6]	0.96 ± 0.07	21.2 ± 1.75 µM	7.12 ± 0.64 µmol Trolox/ µmol comp.	7.7 ± 0.5%	30.0 ± 0.9%	13.4 ± 1.2 µM	3520 ± 290 nM		2.64 ± 0.24 µM	530 ± 40 nM					
CN1CCc2c(c3cc(F)ccc3n2CCC(=O)N2c3ccc(N(C)C)cc3Sc3cc(N(C)C)ccc32)C1 [Compound 7]	1.08 ± 0.08	19 ± 2.28 µM	10.93 ± 0.98 µmol Trolox/ µmol comp.	6.7 ± 0.5%	29.8 ± 2.1%										
CN(C)c1ccc2nc3ccc(=[N+](C)C)cc-3sc2c1 [MB, methylene blue, reference compound]				20% and 20.9 ± 1.9%	40% and 40.8 ± 3.7%							recovered	not detectable	11 mV	not detectable
CN(C)c1ccc2c(c1)Sc1cc(N(C)C)ccc1N2 [MBH2, leucomethylene blue, reference compound]				17.7 ± 1.8%	36.9 ± 3.3%							recovered	not detectable		not detectable
